This is an account of results in patent publication US7183299B2 (priority 2001, dated 2007).

One assay relates to late blight on tomato. Format: in vivo, Plasmopara viticola. The conditions noted are these: tomato (Hofuku), therapeutic effect, sprayed after inoculation, active ingredient 100 ppm, disease severity 7 days after inoculation.
For assay [1], the system named is downy mildew (Plasmopara viticola) on grape. As to conditions: in vivo.

With `Cc1nnnn1C(=NOCc1cccc(NC(=O)OC2CCCCC2)n1)c1ccccc1` [(13)-22], the “Control value (%)” value (with late blight on tomato; in assay [1]) was 100% throughout.

As to `CCCCOC(=O)Nc1cccc(CON=C(c2ccc(C(C)(C)C)cc2)n2nnnc2C)n1` [(19)-35], the entries for the “Control value (%)” value (in the assay on late blight on tomato; in assay [1]) were 80% and 70%, respectively.

On to `Cn1nnnc1C(=NOCc1cccc(NC(=O)C2CC2)n1)c1ccc(Cl)cc1` [(7)-3], for which the “Control value (%)” value (in the assay on late blight on tomato; in assay [1]) was 80% each time.

On to `Cc1nnnn1C(=NOCc1cccc(NC(=O)C2CC2)n1)c1ccccc1` [(11)-21], for which the figures for the “Control value (%)” value (with late blight on tomato; in assay [1]) were 90% and 70%, respectively.

As to `CCCC(=O)Nc1cccc(CON=C(c2ccc(Cl)cc2)c2nnnn2C)n1` [(7)-1], the “Control value (%)” value with late blight on tomato stood at 80%; in assay [1], 70%.

Take `Cn1nnnc1C(=NOCc1csc(NC(=O)C(C)(C)C)n1)c1cccc(F)c1` [(8)-7]: the “Control value (%)” value in the assay on late blight on tomato was found to be 80%; in assay [1], 70%.

With `CCCCOC(=O)Nc1cccc(CON=C(c2ccccc2)n2nnnc2C)n1` [(19)-33], the “Control value (%)” value (in the assay with late blight on tomato; in assay [1]) was 100% each time.

As for `CCCCOC(=O)Nc1cccc(CON=C(c2cccc(F)c2)n2nnnc2C)n1` [(19)-11], the figures for the “Control value (%)” value (with late blight on tomato; in assay [1]) were 90% and 80%, respectively.

As to `Cc1nnnn1C(=NOCc1cccc(NC(=O)C(C)C)n1)c1ccccc1` [(11)-7], the “Control value (%)” value (with late blight on tomato; in assay [1]) was 100% throughout.

As to `CCCCCC(=O)Nc1cccc(CON=C(c2ccccc2)n2nnnc2C)n1` [(11)-12, (Z)-(5-methyltetrazol-1-yl)phenylmethanoneoxime 0-(6-(hexanoylamino)pyridin-2-yl)methyloxime], the “Control value (%)” value (in the assay with late blight on tomato; in assay [1]) was 100% throughout.

With `CC(=O)Nc1cccc(CON=C(c2ccccc2)n2nnnc2C)n1` [(11)-4], the “Control value (%)” value in the assay with late blight on tomato was found to be 80%; in assay [1], 70%.

Regarding `Cn1nnnc1C(=NOCc1cccc(NC(=O)C2CC2)n1)c1ccccc1` [(1)-21], the “Control value (%)” value in the assay on late blight on tomato is 90%; in assay [1] it was 70%.

With `Cn1nnnc1C(=NOCc1csc(NC(=O)C(C)(C)C)n1)c1ccc(Cl)cc1` [(8)-17], the “Control value (%)” value is 80% in the assay with late blight on tomato and 90% in assay [1].

Turning to `Cc1nnnn1C(=NOCc1cccc(NC(=O)OC(C)(C)C)n1)c1ccccc1` [(13)-8], the “Control value (%)” value was determined as 100% with late blight on tomato and 90% in assay [1].

On to `CCCCOC(=O)Nc1cccc(CON=C(c2ccc([N+](=O)[O-])cc2)n2nnnc2C)n1` [(19)-29], for which the “Control value (%)” value with late blight on tomato was found to be 100%; in assay [1], 80%.

As to “(Z)-(1-methyltetrazol-5-yl)phenylmethanoneoxime 0-(2-(n-pentyloxycarbonylamino)thiazol-4-yl)methyloxime [(4)-9]”, the “Control value (%)” value is reported as 100% in the assay on late blight on tomato and 80% in assay [1].

In the case of `CCCC(=O)Nc1nc(CON=C(c2ccccc2)n2nnnc2C)cs1` [(12)-6], the “Control value (%)” value with late blight on tomato worked out at 100%; in assay [1] it was 80%.

Consider `Cn1nnnc1C(=NOCc1csc(NC(=O)OCc2ccccc2)n1)c1ccccc1` [(4)-18], for which the “Control value (%)” value with late blight on tomato stood at 90%; in assay [1], 70%.

In the case of `Cn1nnnc1C(=NOCc1cccc(NC(=O)OCc2ccccc2)n1)c1ccccc1` [(3)-18], the “Control value (%)” value (with late blight on tomato; in assay [1]) was 100% throughout.

`CCCCCOC(=O)Nc1cccc(CON=C(c2ccccc2)c2nnnn2C)n1` [(3)-9]: the “Control value (%)” value (in the assay on late blight on tomato; in assay [1]) was 100% throughout.

With `CCCCCCOC(=O)Nc1cccc(CON=C(c2ccccc2)n2nnnc2C)n1` [(13)-15], the “Control value (%)” value was determined as 90% in the assay with late blight on tomato and 80% in assay [1].

`CCCCCCOC(=O)Nc1nc(CON=C(c2ccccc2)c2nnnn2C)cs1` [(4)-15]: the “Control value (%)” value in the assay with late blight on tomato is on record as 80%; in assay [1], 70%.

For the compound `CCCCOC(=O)Nc1cccc(CON=C(c2ccc(F)cc2)n2nnnc2C)n1` [(19)-12], the results for the “Control value (%)” value (in the assay on late blight on tomato; in assay [1]) were 100% and 90%, respectively.

On to `CCCCCC(=O)Nc1cccc(CON=C(c2ccc(C)cc2)c2nnnn2C)n1` [(7)-12], for which the “Control value (%)” value (in the assay on late blight on tomato; in assay [1]) was 100% each time.

For the compound `CCCCCOC(=O)Nc1cccc(CON=C(c2ccccc2C)c2nnnn2C)n1` [(9)-10], the “Control value (%)” value (in the assay on late blight on tomato; in assay [1]) was 100% each time.

Turning to `CCCOC(=O)Nc1cccc(CON=C(c2ccccc2)c2nnnn2C)n1` [(3)-3], the figures for the “Control value (%)” value (in the assay on late blight on tomato; in assay [1]) were 100% and 90%, respectively.

With `CCCCCOC(=O)Nc1cccc(CON=C(c2ccccc2)n2nnnc2C)n1` [(13)-9], the “Control value (%)” value (with late blight on tomato; in assay [1]) was 100% each time.

With `Cc1nnnn1C(=NOCc1cccc(NC(=O)OC2CCCC2)n1)c1ccccc1` [(13)-21], the “Control value (%)” value in the assay on late blight on tomato stood at 100%; in assay [1], 80%.

With `CCCCOC(=O)Nc1nc(CON=C(c2ccccc2)n2nnnc2C)cs1` [(14)-5], the “Control value (%)” value was 80% with late blight on tomato and 70% in assay [1].

As to `CCCCOC(=O)Nc1cccc(CON=C(c2cccc(Cl)c2)n2nnnc2C)n1` [(19)-13], the “Control value (%)” value (in the assay with late blight on tomato; in assay [1]) was 100% each time.

With `Cc1nnnn1C(=NOCc1cccc(NC(=O)C(C)(C)C)n1)c1ccccc1` [(11)-11], the results for the “Control value (%)” value (with late blight on tomato; in assay [1]) were 80% and 70%, respectively.

Take `CCCCOC(=O)Nc1cccc(CON=C(c2ccc(CC)cc2)n2nnnc2C)n1` [(19)-34]: the results for the “Control value (%)” value (in the assay with late blight on tomato; in assay [1]) were 100% and 80%, respectively.

For the compound `Cc1nnnn1C(=NOCc1csc(NC(=O)c2ccccc2)n1)c1ccccc1` [(16)-3], the “Control value (%)” value came to 80% in the assay with late blight on tomato and 70% in assay [1].

As to `CCCC(=O)Nc1nc(CON=C(c2ccc(Cl)cc2)n2nnnc2C)cs1` [(18)-1], the “Control value (%)” value (in the assay on late blight on tomato; in assay [1]) was 100% throughout.

Take `CCCC(=O)Nc1cccc(CON=C(c2ccc(Cl)cc2)n2nnnc2C)n1` [(17)-1]: the “Control value (%)” value (in the assay with late blight on tomato; in assay [1]) was 100% each time.

Consider `COc1ccc(C(=NOCc2csc(NC(=O)C(C)(C)C)n2)c2nnnn2C)cc1` [(8)-10], for which the figures for the “Control value (%)” value (with late blight on tomato; in assay [1]) were 90% and 70%, respectively.

As to `Cc1nnnn1C(=NOCc1cccc(NC(=O)OC(C)(C)C)n1)c1cccc(F)c1` [(19)-1], the “Control value (%)” value (with late blight on tomato; in assay [1]) was 100% each time.

Turning to `CC(C)C(=O)Nc1nc(CON=C(c2ccc(Cl)cc2)c2nnnn2C)cs1` [(8)-2], the “Control value (%)” value with late blight on tomato was 90%; in assay [1], 70%.

On to `Cn1nnnc1C(=NOCc1cccc(NC(=O)OC(C)(C)C)n1)c1ccccc1` [(3)-8], for which the “Control value (%)” value (with late blight on tomato; in assay [1]) was 100% throughout.

For `CCCCCCC(=O)Nc1cccc(CON=C(c2ccccc2)c2nnnn2C)n1` [(1)-18], the “Control value (%)” value (with late blight on tomato; in assay [1]) was 100% each time.

As for `Cn1nnnc1C(=NOCc1csc(NC(=O)CC(C)(C)C)n1)c1ccccc1` [(2)-16], the “Control value (%)” value in the assay on late blight on tomato came out at 100%; in assay [1], 90%.

For `Cn1nnnc1C(=NOCc1cccc(NC(=O)c2ccccc2)n1)c1ccccc1` [(5)-14], the “Control value (%)” value with late blight on tomato was determined as 100%; in assay [1], 90%.

For `CC(C)OC(=O)Nc1cccc(CON=C(c2ccccc2)c2nnnn2C)n1` [(3)-4], the “Control value (%)” value with late blight on tomato worked out at 100%; in assay [1] it was 90%.

For `CCCCCC(=O)Nc1cccc(CON=C(c2ccccc2)c2nnnn2C)n1` [(1)-12, (Z)-(1-methyltetrazol-5-yl)phenylmethanoneoxime 0-(6-(hexanoylamino)pyridin-2-yl)methyloxime], the “Control value (%)” value (with late blight on tomato; in assay [1]) was 100% in each case.

As to `CCCCCOC(=O)Nc1cccc(CON=C(c2ccc(C)cc2)c2nnnn2C)n1` [(9)-5], the “Control value (%)” value (in the assay with late blight on tomato; in assay [1]) was 100% each time.

Turning to `CCC(C)(C)OC(=O)Nc1cccc(CON=C(c2ccc(C)cc2)c2nnnn2C)n1` [(9)-9], the “Control value (%)” value (in the assay with late blight on tomato; in assay [1]) was 100% throughout.

Take `CCCCOC(=O)Nc1cccc(CON=C(c2ccc(OC)cc2)n2nnnc2C)n1` [(19)-23]: the “Control value (%)” value in the assay with late blight on tomato stood at 80%; in assay [1] it was 70%.

For the compound `CCCOC(=O)Nc1cccc(CON=C(c2cccc(F)c2)c2nnnn2C)n1` [(9)-6], the “Control value (%)” value is 100% in the assay with late blight on tomato and 70% in assay [1].

Turning to `CCCCCOC(=O)Nc1cccc(CON=C(c2ccc(S(C)(=O)=O)cc2)n2nnnc2C)n1` [(19)-28], the “Control value (%)” value (with late blight on tomato; in assay [1]) was 100% throughout.

For `CCOCC(=O)Nc1nc(CON=C(c2ccccc2)c2nnnn2C)cs1` [(6)-2], the “Control value (%)” value in the assay with late blight on tomato turned out to be 80%; in assay [1], 70%.

Consider `CCCCOC(=O)Nc1cccc(CON=C(c2ccc(C)cc2)n2nnnc2C)n1` [(19)-16], for which the “Control value (%)” value (with late blight on tomato; in assay [1]) was 100% in each case.

In the case of `CCCCCC(=O)Nc1nc(CON=C(c2ccccc2)c2nnnn2C)cs1` [(2)-12], the results for the “Control value (%)” value (in the assay with late blight on tomato; in assay [1]) were 100% and 90%, respectively.

In the case of `CCCCOC(=O)Nc1cccc(CON=C(c2ccc(C#N)cc2)n2nnnc2C)n1` [(19)-25], the “Control value (%)” value (with late blight on tomato; in assay [1]) was 90% throughout.

In the case of `CCCCOC(=O)Nc1cccc(CON=C(c2ccccc2)n2nnnc2C)n1` [(13)-5], the “Control value (%)” value is listed as 90% with late blight on tomato and 70% in assay [1].

For `Cn1nnnc1C(=NOCc1cccc(NC(=O)OC2CCCC2)n1)c1ccccc1` [(3)-22], the “Control value (%)” value (in the assay on late blight on tomato; in assay [1]) was 100% each time.
